For four compounds, Ki results are on record in BindingDB's records for doi:10.1021/jm00101a009 (University of Minnesota, 1992).

By Ki is commonly meant the dissociation constant of the complex between target and ligand, obtained from inhibition or displacement. Read a low Ki as tighter binding.

This assay is described as follows: The compound was evaluated for binding affinity against Opioid receptor delta 1 in guinea pig brain membrane using [3H]- DPDPE as ligand.
Take `Oc1ccc2c3c1O[C@H]1c4[nH]c5ccccc5c4C[C@@]4(O)C(C2)N(CCc2ccccc2)CC[C@]314` [22-phenethyl-14-oxa-11,22-diazaheptacyclo[13.9.1.01,13.02,21.04,12.05,10.019,25]pentacosa-4(12),5(10),6,8,15(25),16,18-heptaene-2,16-diol]: the Ki was 11 nM.

Compound `Oc1ccc2c3c1O[C@H]1c4[nH]c5ccccc5c4C[C@H]4C(C2)NCC[C@]314` showed a Ki of 935 nM. For `Oc1ccc2c3c1O[C@H]1c4[nH]c5ccccc5c4C[C@H]4C(C2)N(CCc2ccccc2)CC[C@]314` [22-phenethyl-14-oxa-11,22-diazaheptacyclo[13.9.1.01,13.02,21.04,12.05,10.019,25]pentacosa-4(12),5(10),6,8,15(25),16,18-heptaen-16-ol] the value was 22 nM; for `Oc1ccc2c3c1O[C@H]1c4[nH]c5ccccc5c4C[C@@]4(O)C(C2)NCC[C@]314`, 11 nM.
